From US10604473B2, “Lipids that increase insulin sensitivity and methods of using the same” (Beth Israel Deaconess Medical Center, Inc., priority 2013, dated 2020)

Assays:
[1] = system: LPS-activated dendritic cells; test: LPS-induced activation of bone marrow-derived dendritic cells; format: cell-based, mouse
Description: Mouse bone marrow cells were flushed from the femurs and tibiae. The red blood cells were eliminated and the cells plated at a density of 1.0×10^6 cells/mL in RBMI complete medium containing 10% FCS plus 20 ng/ml GM-CSF. The medium was replaced on day 4, and the cells were harvested on day 6 to obtain immature DCs. To obtain mature DCs, LPS was added to the cultures at a final concentration of 100 ng/mL on day 6, and the cells were cultured for an additional 24 h, as previously described by Macia, L., et al. Impairment of dendritic cell functionality and steady-state number in obese mice. J Immunol 177, 5997-6006 (2006), which is incorporated by reference in its entirety. To test the anti-inflammatory effects of 9-PAHSA, immature BMDC were treated with 9-PAHSA in a dose response dependent manner in the presence of 100 ng/mL of LPS. The activation status of the BMDCs was evaluated by measuring the expression of MHCII and co-stimulatory molecules using Flow Cytometry and by the production of pro-inflammatory cytokines (IL-6, TNF, IL-12 and IL-1β) which was assessed by ELISA.
Mouse bone marrow cells were flushed from the femurs and tibiae. The red blood cells were lysed, and the cells were plated at a density of 0.5×10^6 cells/mL in RPMI 1640 Low medium (Gibco, USA) containing 10% FCS (Gibco, USA) and 20 ng/mL GM-CSF. […]
The immature dendritic cells obtained in the day 6 were maturated with LPS in the presence of different concentrations of 9-PAHSA varying between 100 ng/mL to 20 ug/mL. The cells were maturated for 24 h and the maturation status analyzed by cytokine production and co-stimulatory molecules expression.
The cells were analyzed by Multicolor Flow cytometry. […] The cells were analyzed with an LSR II flow cytometer (BD) and FlowJo software.
An ELISA assay (Biolegend) was used to measure the concentration of IL-12p70 protein in conditioned media from immature and mature BMDCs. This assay allowed for the detection of total IL-12p70 concentrations in the range of 15.6-1,000 pg/ml, and the results are expressed as pg/mL IL-12p70.

purified CEL = target: T1, purified CEL (Homo sapiens, UniProt P19835); test: FAHFA hydrolysis by purified CEL; format: biochemical; conditions: micellar concentrations of NaTC
T1 construct: purchased R&D Systems
T1 sequence (P19835 21-753): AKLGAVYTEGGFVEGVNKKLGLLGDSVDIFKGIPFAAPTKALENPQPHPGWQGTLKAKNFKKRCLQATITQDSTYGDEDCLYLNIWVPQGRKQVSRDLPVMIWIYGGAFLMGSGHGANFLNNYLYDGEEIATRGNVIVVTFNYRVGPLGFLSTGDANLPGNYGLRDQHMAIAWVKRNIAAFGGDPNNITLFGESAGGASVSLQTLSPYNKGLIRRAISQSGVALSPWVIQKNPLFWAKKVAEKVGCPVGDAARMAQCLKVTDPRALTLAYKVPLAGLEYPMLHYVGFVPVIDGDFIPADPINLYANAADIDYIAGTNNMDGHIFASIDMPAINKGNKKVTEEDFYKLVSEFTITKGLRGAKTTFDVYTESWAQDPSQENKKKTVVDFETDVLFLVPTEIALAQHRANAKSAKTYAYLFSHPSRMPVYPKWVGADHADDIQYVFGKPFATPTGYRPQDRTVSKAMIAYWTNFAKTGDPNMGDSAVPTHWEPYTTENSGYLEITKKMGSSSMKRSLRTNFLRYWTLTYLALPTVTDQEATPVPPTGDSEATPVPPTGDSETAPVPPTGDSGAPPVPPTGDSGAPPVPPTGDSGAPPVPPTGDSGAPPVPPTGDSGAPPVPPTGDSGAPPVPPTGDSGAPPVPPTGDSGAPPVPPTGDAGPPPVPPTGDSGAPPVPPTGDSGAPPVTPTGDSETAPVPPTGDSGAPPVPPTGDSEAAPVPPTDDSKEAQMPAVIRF
Excerpt: To confirm the identification of CEL as a FAHFA hydrolase, a small amount of purified enzyme (available commercially from R&D Systems) was used.

[2] = FAHFA hydrolysis assay (9-PAHSA to 9-HSA), liver lysate; conditions: liver lysate 1 mg/ml protein, 100 μM, 37° C., two hours
Description: To establish whether or not FAHFA can be enzymatically degraded, an LC-MS-based in vitro activity assay was developed to measure the hydrolysis of 9-PAHSA to 9-HSA. […] Liver lysate (1 mg/ml protein) was incubated with 100 μM 9-PAHSA at 37° C. for two hours. The reaction mixture was then extracted with one volume ethyl acetate, concentrated under nitrogen gas stream, and reconstituted in 1:1 chloroform:methanol for MS analysis.

Compound: CCCCCCCCCCCCCCCC(=O)OC(CCCCCCCCC)CCCCCCCC(=O)O (centres unmarked) [9-PAHSA, palmitoyl-9-hydroxystearic acid]
- IL-12 production ([1]; LPS 100 ng/mL): blocks IL-12 production
- expression of MHCII and co-stimulatory molecules (CD40, CD80, CD86) ([1]; LPS-induced): reducing expression of MHCII and co-stimulatory molecules
- LPS-induced dendritic cell activation ([1]; dose response): prevents LPS-induced dendritic cell activation in a dose dependent manner
- hydrolysis of 9-PAHSA (9-HSA production) (purified CEL): substantial hydrolysis
- hydrolysis of 9-PAHSA to 9-HSA [2]: Substantial 9-HSA production
